Patent US4338433A, “Moranoline derivatives and process for preparation thereof” (Nippon Shinyaku Co. Ltd., priority 1979, dated 1982)

Assays:
[1] = molecular target: T1, α-1,4-glucanglucohydrolase (glucoamylase) (Rhizopus arrhizus, UniProt P07683); assay: Inhibition of α-1,4-glucanglucohydrolase (glucoamylase), soluble starch substrate; type: biochemical; details: read-out: percent inhibition at parenthesized concentration; for inhibition at 200 µg/mL: at 200 μg/ml (printed >200 μg/ml)
T1 sequence (P07683 26-604): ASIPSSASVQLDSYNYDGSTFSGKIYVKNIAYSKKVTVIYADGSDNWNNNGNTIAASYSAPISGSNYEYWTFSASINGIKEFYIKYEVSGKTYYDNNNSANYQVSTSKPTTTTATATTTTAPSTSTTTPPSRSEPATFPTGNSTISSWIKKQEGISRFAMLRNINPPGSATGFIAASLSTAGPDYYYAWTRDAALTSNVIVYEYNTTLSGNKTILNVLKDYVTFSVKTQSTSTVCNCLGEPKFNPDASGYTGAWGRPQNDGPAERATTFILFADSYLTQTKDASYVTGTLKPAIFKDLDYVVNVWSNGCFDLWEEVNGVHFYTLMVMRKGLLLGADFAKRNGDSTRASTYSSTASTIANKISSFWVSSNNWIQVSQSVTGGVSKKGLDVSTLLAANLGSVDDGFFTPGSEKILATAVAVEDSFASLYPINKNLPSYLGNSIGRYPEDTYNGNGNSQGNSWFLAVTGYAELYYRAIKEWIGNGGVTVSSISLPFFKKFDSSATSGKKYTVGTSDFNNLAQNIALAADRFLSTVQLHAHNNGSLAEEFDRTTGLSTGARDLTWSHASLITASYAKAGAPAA
Method: Moranoline, N-lower-alkylmoranolines, oligoglycosylmoranolines and N-lower-alkyloligoglucosylmoranolines inhibit the activity of α-1,4-glucanglucohydrolase. The inhibition is determined according to the following method.
Glucoamylase (crystal) derived from Rhizopus nivens (supplied by Seikagaku Kogyo K. K.) is dissolved in distilled water so that the concentration is 50 μg/ml and the enzyme is used in the form of the so obtained solution.
Soluble starch is dissolved in a buffer solution at a high temperature so that the concentration is 1.4%, and the solution is cooled to room temperature and used.
0.1 M phosphate buffer solution (pH=5.7)
The starting liquid is incubated at 40° C. for 10 minutes, and 1 ml of a 0.3 N solution of Ba(OH)2 and 1 ml of a 5% solution of ZnSO4 are added. Centifugal separation is conducted under a load of 2000×g for 10 minutes, and 30 μl of the supernatant is sampled and 3 ml of a glucose color reagent (supplied by Boelunger Mannheim Co.; new blood sugar test) was added to the supernatant. The mixture was allowed to stand at room temperature for 35 minutes and the absorbance at 420 nm is measured. The percent inhibition is calculated according to the following formula: [formula] wherein C stands for the absorbance of the control, T stands for the absorbance of the test sample, B' stands for the absorbance of the blank (I), and B stands for the absorbance of the blank (II).
The percent inhibition is also determined in respect of dilutions, and the concentration (IC50) providing 50% inhibition is found. In Table 4, the percent inhibition obtained at a parenthesized concentration is shown when the inhibition is low.

blood sugar levels = assay: Effect of controlling increase of blood sugar levels in sucrose-loaded rats; type: in vivo, rats of the SD series; details: Rattus norvegicus, po, 3 h; 2 g/Kg sucrose and 5 mg/Kg test compound orally; ΔAUC over 180 minutes; male SD rats; read-out: Blood Level Increase Inhibition Ratio (%)
Method: [Effect of Controlling Increase of Blood Sugar Levels]
Five-week-old male rats of the SD series are divided into groups, each consisting of 4 rats, and 2 g/Kg of sucrose and 5 mg/Kg of the test compound are orally administered. Blood is collected from the tail veins at predetermined intervals over a period of 180 minutes from the point of administration and the blood level values are measured. The area (ΔAUC) below the time-blood level increase curve is determined. The blood level increase inhibition ratio of the test compound is calculated from the basal value obtained in the group to which water alone has been administered and the control value obtained in the group to which sucrose alone has been administered according to the following formula: [formula]

[2] = molecular target: T2, α-1,4-glucanglucohydrolase (Rhizopus arrhizus, UniProt P07683); assay: Decomposition of the substance by α-1,4-glucanglucohydrolase (glucose release); type: biochemical
T2 sequence (P07683 26-604): T1 sequence (P07683 26-604)
Excerpt: Practically, reactions of the respective stages are advanced on a mixture of compounds differing in the glucose number (m). Accordingly, in order to accumulate intended G-MR in the liquid reaction mixture, it is indispensable that rate constants should be sufficiently high but the rate constant k1 should be sufficiently low. FIG. 4 clarifies this point. FIG. 4 will now be explained. A predetermined amount of N-methyloligoglycosylmoranoline is adsorbed on 1 g of Dowex 50W×2 (H^+) in an Erlenmeyer flask having a capacity of 125 ml, and they are suspended in 50 ml of distilled water and 10 mg of α-1,4-glucanglucohydrolase is added to the suspension. Incubation is carried out at 40° C., and 500 μl of the liquid is sampled at predetermined intervals and the amount of glucose is determined. When maltose is used as the substrate, it is mixed with 1 g of Dowex 50W×2 (H^+) and in this state, incubation is carried out at 40° C.
1 ml of 0.3 N Ba(OH)2 and 1 ml of 5% ZnSO4 are added to 500 μl of the reaction mixture liquid and centifugal separation is carried out under a load of 2000 g for 10 minutes. 30 μl of the supernatant is taken and 3 ml of a commercially available glucose color reagent (manufactured by Boehunger Mannheim Co.; new blood sugar test) is added to the sampled supernatant. The mixture is sufficiently stirred and allowed to stand at room temperature for 35 minutes and the absorbance at 420 nm is measured. Separately, a glucose reference reagent (9.1 mg/dl) is similarly treated and the absorbance at 420 nm is measured. Based on these measurements, the amount of glucose formed in the reaction mixture liquid is determined.
About 22 units/mg of α-1,4-glucanglucohydrolase (crystal) derived from Rhizopus niveus (supplied by Seikagaku Kogyo K.K.)
The reaction time is plotted on the abscissa and the ratio of decomposition based on complete decomposition of glucose is plotted on the ordinate. […] After determination of the amount of glucose, the reaction liquid is filtered and the ion exchange resin (Dowex 50W×2) is collected, washed with water sufficiently and eluted with 0.5 N aqueous ammonia. The eluate is concentrated under reduced pressure and dried to the solid. The solid is dissolved in distilled water and subjected to high speed liquid chromatography (Model ALC/GPC-244 supplied by Waters Co., μ-Bondapak NH2 column, acetonitrile/water=70/30, 1.5 cc/min), and the reaction product is identified by a chromatopac Model C-R1A supplied by Shimadzu Seisakusho K. K. The ratios of formation of N-methylmoranoline are […] in case of 4-(α-D-glucosyl)-N-methylmoranoline, 4-(α-D-amltosyl)-N-methylmoranoline, 4-(α-D-maltotriosyl)-N-methylmoranoline and 4-(α-D-maltotetraosyl)-N-methylmoranoline, respectively. […]

| Compound | inhibition in vivo at 5 mg/kg (blood sugar levels) [%] | other results |
| --- | --- | --- |
| CCN1C[C@H](O)[C@@H](O)[C@H](O[C@H]2O[C@H](CO)[C@@H](O)[C@H](O)[C@H]2O)[C@H]1CO [4-(α-D-glucosyl)-N-ethylmoranoline] | 22 | inhibition at 800 µg/mL ([1]; at 800 μg/ml (printed >800 μg/ml)): 38% |
| CN1C[C@H](O)[C@@H](O)[C@H](O[C@H]2O[C@H](CO)[C@@H](O)[C@H](O)[C@H]2O)[C@H]1CO [4-(α-D-glucosyl)-N-methylmoranoline] | 56 | decomposition by α-1,4-glucanglucohydrolase (in words) ([2]; qualitative statement, FIG. 4): extremely small |
| CCCN1C[C@H](O)[C@@H](O)[C@H](O[C@H]2O[C@H](CO)[C@@H](O)[C@H](O)[C@H]2O)[C@H]1CO [4-(α-D-glucosyl)-N-propylmoranoline] | 24 |  |
| OC[C@H]1NC[C@H](O)[C@@H](O)[C@@H]1O[C@H]1O[C@H](CO)[C@@H](O)[C@H](O)[C@H]1O [4-(α-D-glucosyl)-moranoline] | 44 | inhibition at 200 µg/mL [1]: 15%; decomposition by α-1,4-glucanglucohydrolase (in words) ([2]; qualitative statement, FIG. 4): hardly decomposed |
| CN1C[C@H](O)[C@@H](O)[C@H](O[C@H]2O[C@H](CO)[C@@H](O[C@H]3O[C@H](CO)[C@@H](O[C@H]4O[C@H](CO)[C@@H](O[C@H]5O[C@H](CO)[C@@H](O[C@H]6O[C@H](CO)[C@@H](O)[C@H](O)[C@H]6O)[C@H](O)[C@H]5O)[C@H](O)[C@H]4O)[C@H](O)[C@H]3O)[C@H](O)[C@H]2O)[C@H]1CO [4-(α-D-maltopentaosyl)-N-methylmoranoline] | 23 |  |
| CCN1C[C@H](O)[C@@H](O)[C@H](O[C@H]2O[C@H](CO)[C@@H](O[C@H]3O[C@H](CO)[C@@H](O)[C@H](O)[C@H]3O)[C@H](O)[C@H]2O)[C@H]1CO [4-(α-D-maltosyl)-N-ethylmoranoline] | 35 |  |
| CN1C[C@H](O)[C@@H](O)[C@H](O[C@H]2O[C@H](CO)[C@@H](O[C@H]3O[C@H](CO)[C@@H](O)[C@H](O)[C@H]3O)[C@H](O)[C@H]2O)[C@H]1CO [4-(α-D-maltosyl)-N-methylmoranoline] | 62 |  |
| OC[C@H]1NC[C@H](O)[C@@H](O)[C@@H]1O[C@H]1O[C@H](CO)[C@@H](O[C@H]2O[C@H](CO)[C@@H](O)[C@H](O)[C@H]2O)[C@H](O)[C@H]1O [4-(α-D-maltosyl)-moranoline] | 35 | inhibition at 200 µg/mL [1]: 0% |
| CN1C[C@H](O)[C@@H](O)[C@H](O[C@H]2O[C@H](CO)[C@@H](O[C@H]3O[C@H](CO)[C@@H](O[C@H]4O[C@H](CO)[C@@H](O[C@H]5O[C@H](CO)[C@@H](O)[C@H](O)[C@H]5O)[C@H](O)[C@H]4O)[C@H](O)[C@H]3O)[C@H](O)[C@H]2O)[C@H]1CO [4-(α-D-maltotetraosyl)-N-methylmoranoline] | 25 |  |
| OC[C@H]1NC[C@H](O)[C@@H](O)[C@@H]1O[C@H]1O[C@H](CO)[C@@H](O[C@H]2O[C@H](CO)[C@@H](O[C@H]3O[C@H](CO)[C@@H](O[C@H]4O[C@H](CO)[C@@H](O)[C@H](O)[C@H]4O)[C@H](O)[C@H]3O)[C@H](O)[C@H]2O)[C@H](O)[C@H]1O [4-(α-D-maltotetraosyl)-moranoline] | 56 | inhibition at 200 µg/mL [1]: 0% |
| CN1C[C@H](O)[C@@H](O)[C@H](O[C@H]2O[C@H](CO)[C@@H](O[C@H]3O[C@H](CO)[C@@H](O[C@H]4O[C@H](CO)[C@@H](O)[C@H](O)[C@H]4O)[C@H](O)[C@H]3O)[C@H](O)[C@H]2O)[C@H]1CO [4-(α-D-maltotriosyl)-N-methylmoranoline] | 29 |  |
| OC[C@H]1NC[C@H](O)[C@@H](O)[C@@H]1O[C@H]1O[C@H](CO)[C@@H](O[C@H]2O[C@H](CO)[C@@H](O[C@H]3O[C@H](CO)[C@@H](O)[C@H](O)[C@H]3O)[C@H](O)[C@H]2O)[C@H](O)[C@H]1O [4-(α-D-maltotriosyl)-moranoline] | 31 | inhibition at 200 µg/mL [1]: 0% |
| OC[C@H]1O[C@H](O[C@H]2[C@H](O)[C@@H](O)C(O)O[C@@H]2CO)[C@H](O)[C@@H](O)[C@@H]1O (stereo partly shown) [maltose, reference compound] |  | decomposition by α-1,4-glucanglucohydrolase (in words) ([2]; in 1 hour, 40° C., mixed with Dowex 50W×2 (H+)): decomposed substantially completely; decomposition by α-1,4-glucanglucohydrolase (in words) ([2]; qualitative statement, FIG. 4): promptly decomposed to glucose |
| OC[C@H]1NC[C@H](O)[C@@H](O)[C@@H]1O [moranoline, Moranoline] | 19 |  |
